Values after ≈ are worked out from the molar mass of the structure shown. Values joined by “and” are separate entries in the source; they are usually repeats but may differ in a detail not shown here. Equal entries are not always repeated. Marks after values point to notes of the source that are not given here. Blank lines part the entries; values can stand above or below the compound they belong to.
Experiments:
[1] = pH of the saturated aqueous solutions; format: physicochemical; settings: saturated aqueous solution of the solubility experiment
Experimental: (§1) The concentration was measured by absorbances at 260 nm for 4-chlorobenzaldehyde, 263 nm for 4-bromobenzaldehyde and 2,4-dichlorobenzaldehyde, 297 nm for 2,6-dichlorobenzaldehyde, and 306 nm for 2,3-dichlorobenzaldehyde, using a Cary-60 UV–vis (Agilent) spectrophotometer. X-ray diffraction (XRD) and differential scanning calorimetry of residual solids were used to identify the eventual phase transformations. The purified samples of each compound studied were used for all experimental determinations, including the solubility measurements. After reaching the equilibrium, the residual solid was dried and analyzed using both DSC and XRD. The melting properties obtained from DSC were compared with those of the original purified sample, following the same procedure for the XRD analysis. […] As an example, the supporting information includes two thermograms and two XRD patterns for 2,4-dichlorobenzaldehyde (Figures S1 and S2). […] Equation (4) was derived from Equation (5), which is widely applicable to the solubility of solids.(4) ΔhydrGm°/kJ·mol^−1=9.17−5.71·log10(Scr/mol·m^−3)−ΔcrgGm°/kJ·mol^−1 (5) S=p^°/RTexpΔcrgGm°+ΔhydrGm°/−RT
(§2) An excess amount of each compound was added to a known volume of water in triplicate. […] After stirring, the solid phase was allowed to settle for 2 h. The pH of the saturated solutions was measured using a Mettler Toledo (Greifensee, Switzerland) FiveEasy F20 pH Meter calibrated with standard aqueous solutions (pH 7.00 and 4.01 or 10.1). Those solutions were then filtered through a 0.22 μm syringe hydrophilic filter (13 mm, PTFE, Labfil, Zhejiang, China) and diluted to the required concentration. The concentration of the compounds, expressed in molarity, was measured by absorbances using a Cary-60 UV–vis spectrophotometer (Agilent Technologies, Santa Clara, CA, USA) at 298.15 K (single cell Peltier accessory, ±0.15 K). The results reported in Table 6 are averaged from at least three replicates. Calibration was performed using solutions of known concentrations of each substance in water. These solutions were prepared by adding a precise mass of the substance and a specific volume of the solvent to a flask, then mixing until the substance was fully dissolved. The absorbance of these solutions was measured, and calibration curves were created.

[2] = Vapor pressures of crystalline and liquid phases, static method with capacitance diaphragm gauge; format: physicochemical
Text: A previously described and tested static apparatus was used to measure the vapor pressures of the condensed phases (both crystalline and liquid) of the five compounds studied. This installation employs MKS capacitance diaphragm absolute gauges, operating at self-regulated constant temperatures. Our lab is equipped with three pressure gauges. Gauge I, a Baratron 631A01TBEH (MKS instruments, Andover, MA, USA) (Tgauge = 423 K), measures pressures in the range of 0.5 to 1.3 × 10^2 Pa and operates within a temperature range of 253 to 413 K. Gauge II, the instrument used in this study, is a Baratron 631A11TBFP (MKS instruments, Andover, MA, USA) (Tgauge = 473 K), capable of measuring pressures from 0.5 to 1.3 × 10^3 Pa within a temperature range of 253 to 433 K and gauge III, a Baratron 631D02T8FP (MKS instruments, Andover, MA, USA) (Tgauge = 473 K), designed to measure pressures between 0.5 Pa and 2.6 × 10^2 Pa, also within a temperature range of 253 to 433 K. The temperatures of the samples were measured using a Pt100 platinum resistance thermometer, calibrated by comparison with a standard platinum resistance thermometer (SPRT: Tinsley Precision Instruments Ltd, London, England). To prevent vapor condensation, the tubing connecting the cell containing the condensed sample to the pressure gauge is maintained at a temperature higher than that of the sample but lower than that of the gauge. The uncertainty in temperature measurements is estimated to be u(T/K) = ±0.01, and the expanded uncertainties (0.95 confidence level, k = 2) in pressure measurements are given by the expression U(p/Pa) = 0.1 + 0.0050 (p/Pa) for the gauge used. Samples were thoroughly degassed before starting the vapor pressure measurements, ensuring consistent readings at specific temperatures and eliminating any residual volatile substances, including water.

[3] = Equilibrium solubility in water, saturation shake-flask method with UV-vis; settings: 25 °C, thermodynamic from solid
Experimental: as §1, §2

pH of the saturated solution [1]: 6.82
vapor pressure p ([2]; crystalline phase, T = 283.09 K): 0.83 Pa
vapor pressure p ([2]; crystalline phase, T = 285.23 K): 1.07 Pa
vapor pressure p ([2]; crystalline phase, T = 287.05 K): 1.33 Pa
vapor pressure p ([2]; crystalline phase, T = 289.17 K): 1.71 Pa
vapor pressure p ([2]; crystalline phase, T = 291.17 K): 2.13 Pa
vapor pressure p ([2]; crystalline phase, T = 292.95 K): 2.63 Pa
vapor pressure p ([2]; crystalline phase, T = 295.00 K): 3.25 Pa
vapor pressure p ([2]; crystalline phase, T = 297.08 K): 4.12 Pa
vapor pressure p ([2]; crystalline phase, T = 298.95 K): 4.98 Pa
vapor pressure p ([2]; crystalline phase, T = 301.06 K): 6.27 Pa
vapor pressure p ([2]; crystalline phase, T = 302.93 K): 7.60 Pa
vapor pressure p ([2]; crystalline phase, T = 304.86 K): 9.21 Pa
vapor pressure p ([2]; crystalline phase, T = 306.87 K): 11.43 Pa
vapor pressure p ([2]; crystalline phase, T = 308.76 K): 13.82 Pa
vapor pressure p ([2]; crystalline phase, T = 310.84 K): 17.02 Pa
vapor pressure p ([2]; crystalline phase, T = 312.78 K): 20.28 Pa
vapor pressure p ([2]; crystalline phase, T = 314.77 K): 24.88 Pa
vapor pressure p ([2]; crystalline phase, T = 316.79 K): 29.92 Pa
vapor pressure p ([2]; crystalline phase, T = 318.78 K): 36.33 Pa
vapor pressure p ([2]; crystalline phase, T = 320.66 K): 43.34 Pa
vapor pressure p ([2]; crystalline phase, T = 322.62 K): 51.66 Pa
vapor pressure p ([2]; crystalline phase, T = 324.68 K): 61.49 Pa
vapor pressure p ([2]; liquid phase, T = 330.60 K): 103.9 Pa
vapor pressure p ([2]; liquid phase, T = 332.51 K): 117.8 Pa
vapor pressure p ([2]; liquid phase, T = 334.45 K): 131.9 Pa
vapor pressure p ([2]; liquid phase, T = 336.48 K): 148.9 Pa
vapor pressure p ([2]; liquid phase, T = 338.43 K): 168.4 Pa
vapor pressure p ([2]; liquid phase, T = 340.46 K): 189.9 Pa
vapor pressure p ([2]; liquid phase, T = 342.44 K): 213.5 Pa
vapor pressure p ([2]; liquid phase, T = 344.41 K): 240.4 Pa
vapor pressure p ([2]; liquid phase, T = 346.34 K): 266.7 Pa
vapor pressure p ([2]; liquid phase, T = 348.34 K): 300.1 Pa
vapor pressure p ([2]; liquid phase, T = 350.32 K): 333.2 Pa
vapor pressure p ([2]; liquid phase, T = 352.34 K): 375.3 Pa
vapor pressure p ([2]; liquid phase, T = 354.27 K): 418.5 Pa
vapor pressure p ([2]; liquid phase, T = 356.26 K): 463.6 Pa
vapor pressure p ([2]; liquid phase, T = 358.21 K): 513.4 Pa
vapor pressure p ([2]; liquid phase, T = 360.13 K): 573.1 Pa
vapor pressure p ([2]; liquid phase, T = 362.14 K): 628.6 Pa
vapor pressure p ([2]; liquid phase, T = 364.12 K): 701.8 Pa
vapor pressure p ([2]; liquid phase, T = 366.10 K): 775.8 Pa
vapor pressure p ([2]; liquid phase, T = 368.08 K): 860.4 Pa
vapor pressure p ([2]; liquid phase, T = 370.05 K): 946.6 Pa
vapor pressure p ([2]; liquid phase, T = 371.99 K): 1026 Pa
vapor pressure p ([2]; liquid phase, T = 373.98 K): 1147 Pa
vapor pressure p ([2]; supercooled liquid, T = 316.76 K): 39.76 ^d Pa
vapor pressure p ([2]; supercooled liquid, T = 318.77 K): 46.26 ^d Pa
vapor pressure p ([2]; supercooled liquid, T = 320.73 K): 53.22 ^d Pa
vapor pressure p ([2]; supercooled liquid, T = 322.70 K): 60.73 ^d Pa
vapor pressure p ([2]; supercooled liquid, T = 324.68 K): 69.79 ^d Pa
vapor pressure p ([2]; supercooled liquid, T = 326.64 K): 79.36 ^d Pa
vapor pressure p ([2]; supercooled liquid, T = 328.63 K): 90.64 ^d Pa
solubility at 72 h [3]: 3.71 mM (≈ 687 µg/mL)
Structure (SMILES): O=Cc1ccc(Br)cc1 [4-Bromobenzaldehyde]

pH of the saturated solution [1]: 6.61
vapor pressure p ([2]; crystalline phase, T = 267.45 K): 0.57 Pa
vapor pressure p ([2]; crystalline phase, T = 269.33 K): 0.72 Pa
vapor pressure p ([2]; crystalline phase, T = 271.42 K): 0.93 Pa
vapor pressure p ([2]; crystalline phase, T = 273.29 K): 1.15 Pa
vapor pressure p ([2]; crystalline phase, T = 275.39 K): 1.48 Pa
vapor pressure p ([2]; crystalline phase, T = 277.25 K): 1.84 Pa
vapor pressure p ([2]; crystalline phase, T = 279.32 K): 2.33 Pa
vapor pressure p ([2]; crystalline phase, T = 281.20 K): 2.90 Pa
vapor pressure p ([2]; crystalline phase, T = 283.26 K): 3.60 Pa
vapor pressure p ([2]; crystalline phase, T = 285.16 K): 4.49 Pa
vapor pressure p ([2]; crystalline phase, T = 287.22 K): 5.65 Pa
vapor pressure p ([2]; crystalline phase, T = 289.23 K): 6.93 Pa
vapor pressure p ([2]; crystalline phase, T = 291.18 K): 8.49 Pa
vapor pressure p ([2]; crystalline phase, T = 293.07 K): 10.45 Pa
vapor pressure p ([2]; crystalline phase, T = 295.14 K): 12.75 Pa
vapor pressure p ([2]; crystalline phase, T = 297.14 K): 15.67 Pa
vapor pressure p ([2]; crystalline phase, T = 299.12 K): 19.07 Pa
vapor pressure p ([2]; crystalline phase, T = 300.99 K): 23.01 Pa
vapor pressure p ([2]; crystalline phase, T = 303.05 K): 28.05 Pa
vapor pressure p ([2]; crystalline phase, T = 305.04 K): 34.26 Pa
vapor pressure p ([2]; crystalline phase, T = 306.98 K): 40.71 Pa
vapor pressure p ([2]; crystalline phase, T = 309.01 K): 49.06 Pa
vapor pressure p ([2]; crystalline phase, T = 310.96 K): 58.06 Pa
vapor pressure p ([2]; crystalline phase, T = 312.92 K): 69.28 Pa
vapor pressure p ([2]; crystalline phase, T = 314.91 K): 82.74 Pa
vapor pressure p ([2]; liquid phase, T = 319.87 K): 125.4 Pa
vapor pressure p ([2]; liquid phase, T = 321.85 K): 143.8 Pa
vapor pressure p ([2]; liquid phase, T = 323.75 K): 162.2 Pa
vapor pressure p ([2]; liquid phase, T = 325.71 K): 183.0 Pa
vapor pressure p ([2]; liquid phase, T = 327.66 K): 206.8 Pa
vapor pressure p ([2]; liquid phase, T = 329.70 K): 235.5 Pa
vapor pressure p ([2]; liquid phase, T = 331.69 K): 264.4 Pa
vapor pressure p ([2]; liquid phase, T = 333.66 K): 298.2 Pa
vapor pressure p ([2]; liquid phase, T = 335.64 K): 336.0 Pa
vapor pressure p ([2]; liquid phase, T = 337.61 K): 375.5 Pa
vapor pressure p ([2]; liquid phase, T = 339.57 K): 415.3 Pa and 416.0 Pa
vapor pressure p ([2]; liquid phase, T = 341.56 K): 468.0 Pa
vapor pressure p ([2]; liquid phase, T = 343.52 K): 520.0 Pa
vapor pressure p ([2]; liquid phase, T = 345.50 K): 578.0 Pa
vapor pressure p ([2]; liquid phase, T = 347.47 K): 640.9 Pa
vapor pressure p ([2]; liquid phase, T = 347.50 K): 641.0 Pa
vapor pressure p ([2]; liquid phase, T = 349.45 K): 711.8 Pa
vapor pressure p ([2]; liquid phase, T = 351.43 K): 788.7 Pa
vapor pressure p ([2]; liquid phase, T = 353.30 K): 864.6 Pa
vapor pressure p ([2]; liquid phase, T = 355.30 K): 958.0 Pa
vapor pressure p ([2]; liquid phase, T = 357.33 K): 1058 Pa
vapor pressure p ([2]; supercooled liquid, T = 305.70 K): 48.17 ^d Pa
vapor pressure p ([2]; supercooled liquid, T = 307.91 K): 56.22 ^d Pa
vapor pressure p ([2]; supercooled liquid, T = 309.86 K): 65.09 ^d Pa
vapor pressure p ([2]; supercooled liquid, T = 311.92 K): 75.03 ^d Pa
vapor pressure p ([2]; supercooled liquid, T = 313.90 K): 86.06 ^d Pa
vapor pressure p ([2]; supercooled liquid, T = 315.83 K): 96.33 ^d Pa
vapor pressure p ([2]; supercooled liquid, T = 317.92 K): 110.0 ^d Pa
solubility at 72 h [3]: 8.83 mM (≈ 1240 µg/mL)
Structure (SMILES): O=Cc1ccc(Cl)cc1 [4-Chlorobenzaldehyde]

From paper PMC11990670, “Exploring the Volatility, Phase Transitions, and Solubility Properties of Five Halogenated Benzaldehydes” (Molecules, 2025)
